# Experimental data as given in US5972357A, “Healthy foods and cosmetics” (Kikkoman Corporation, priority 1996, dated 1999).
# Counter-ions that a name gives are not always drawn. Like-named read-outs stand apart in the source and are kept apart here.
# What was measured:
# [1] = anti-oxidation activity (linoleic acid/β-carotene emulsion, autoxidation); conditions: 0.0005% test substance, pH 7.0, 25° C., 460 nm; lesser ratio = stronger
# Protocol: The anti-oxidation activities was evaluated according to the method by A. Ben Aziz et al. […] That is to say, an emulsion of linoleic acid and β-carotene was first prepared with Tween 20 (Sigma) and adjusted to pH 7.0 with 0.1 M trishydroxyaminomethane-hydrochloride. […] During the reaction, the color degradation of β-carotene in association with the autoxidation of linoleic acid was measured with the passage of time as the decreased value of the optical density at 460 nm with a spectrophotometer. […] The antioxidant activity was measured as a ratio of the decreasing rate of absorbance in the presence of the substance to be tested to the decreasing rate of absorbance in the absence of the antioxidant.
# [2] = anti-oxidation activity in a lipid oxidation process promoted by a metal ion (copper sulfate); conditions: 5 μM copper sulfate added; lesser ratio = stronger
# Protocol: The anti-oxidation activities was evaluated according to the method by A. Ben Aziz et al. (see Phytochemistry, 10, 1445, 1971). That is to say, an emulsion of linoleic acid and β-carotene was first prepared with Tween 20 (Sigma) and adjusted to pH 7.0 with 0.1 M trishydroxyaminomethane-hydrochloride. To the emulsion was added 0.0005% of a substance to be tested, and the mixture was reacted at 25° C.
# During the reaction, the color degradation of β-carotene in association with the autoxidation of linoleic acid was measured with the passage of time as the decreased value of the optical density at 460 nm with a spectrophotometer.
# The substance to be tested was a garcinal preparation obtained in Referential Example 1, and vitamin E and (+)-catechin were used as Comparative Example. The antioxidant activity was measured as a ratio of the decreasing rate of absorbance in the presence of the substance to be tested to the decreasing rate of absorbance in the absence of the antioxidant. That is, the substance is judged to have an antioxidant activity when the ratio is less than 1, and thus it is predicated that the lesser the ratio, the stronger the antioxidant activity.
# The oxidation process of linoleic acid in Experimental Example 1 is promoted by a metal ion. If 5 μM of copper sulfate is added to the reaction system, the color-degradation rate of β-carotene is promoted by about 30%. When garcinol was added to this system, the ratio of the decreasing rate of absorbance was 0.57. In this connection, it was 0.13 for vitamin E and 0.84 for (+)-catechin.
# [3] = DPPH radical scavenging activity; conditions: 0.0002% test substance, 1.0×10^-4 M DPPH, 25° C., 1 hour, 528 nm
# Protocol: The 1,1-diphenyl-2-picrylhydrazyl (DPPH) radical scavenging activity was tested with a garcinol preparation prepared in the similar manner as described in Referential Example 1. That is to say, a 1.0×10^-4 M solution (50% ethanolic) of DPPH was prepared, 0.0002% of a test substance was added, and the decrease of optical density at 528 nm was measured after 1 hour reaction at 25° C. for one hour. In this case, ascorbic acid was used as a standard, the decrease of the absorbance was expressed as 100, and the radical scavenging activity of the test substance was measured as equivalences to ascorbic acid. In this connection, a garcinol preparaion used as the test substance, and vitamin E and (+)-catechin were used as references.
# [4] = superoxide scavenging activity test with phenazine methosulfate; conditions: 40 μM final concentration
# Protocol: The active oxygen scavenging activity was evaluated according to the superoxide scavenging activity test with phenazine methosulfate. That is to say, dihydronicotinamide adenine dinucleotide and phenazine methosulfate were first reacted in a buffer at a physiological hydrogen ion concentration. The absorbance at 560 nm of a formazan pigment produced by the reduction of Nitro Blue Tetrazolium with superoxide was measured. […] The ratio of decreases of absorbance was expressed as superoxide scavenging activity.
# bovine serum albumin [5] = assay: suppression of generation of reactive oxygen species in the presence of metal ion (oxidation of bovine serum albumin in Fenton reaction); type: biochemical; conditions: 1 mM test substance, 10 μM copper ion, 20 mM hydrogen peroxide, 4 mg/ml BSA
# Protocol: The activity for suppressing the generation of reactive oxygen species in the presence of metal ion was evaluated by measuring the effect for suppressing the oxidation of bovine serum albumin by hydroxyl radical in the Fenton reaction system. That is to say, hydroxyl radical was first produced by divalent copper ion and hydrogen peroxide (Fenton reaction). Bovine serum albumin was oxidized by the hydroxyl radical, and thus carbonyl was produced. The carbonyl was reacted with 2,4-dinitrophenylhydrazine, and determined by measuring the absorbance at 365 nm. […] The ratio of decreases of absorbance was expressed as the activity for suppressing the generation of reactive oxygen species in the presence of metal ion.
# bovine serum albumin [6] = assay: Maillard reaction inhibiting activity (bovine serum albumin/D-fructose)
# Protocol: (§3) A solution containing bovine serum albumin (4 mg/ml), 500 mM D-fructose and 200 mM potassium phosphate buffer (pH 7.4) was aseptically prepared. To the solution was added 0.1 mM of a test substance. The substance insoluble in water was added as an ethanolic solution so as the final concentration of ethanol to be less than 1%. After incubation of these solutions at 37° C. for 5 days, equivalent volume of a cold 10% trichloroacetic acid solution was added to the solution to precipitate proteins. The precipitate was collected by centrifugation, further washed with a cold 5% trichloroacetic acid solution, and dissolved again in a 200 mM potassium phosphate buffer. The solution was diluted appropriately with distilled water, and the fluorescence intensity at 425 nm was measured with an excitation wave length at 350 nm in a fluorescence spectrophotometer (Shimadzu Seisakusho, Ltd.). The inhibition activity was calculated from the following equation.
# (§4) Inhibition activity (%)=(Fc-Fs)/(Fc-Fb)×100
# (§5) Fs: fluorescence intensity in the presence of test substance;
# (§6) Fc: fluorescence intensity in the absence of test substance;
# (§7) Fb: fluorescence intensity in the absence of fructose.
# bovine serum albumin [7] = conditions: bovine serum albumin/d-fructose, 120 h, 1000 µM, pH 7.4
# Protocol: as §3, §4, §5, §6, §7
# gastric ulcer [8] = assay: anti-ulcer test against indomethacin-induced gastric ulcer; type: in vivo, Wistar/ST male rats; conditions: 200 mg/kg oral; for Length of ulcer: 30 minutes before indomethacin (50 mg/kg s.c.), control 47.75 ± 6.08; for Suppression rate: indomethacin ulcer, vs. control
# Protocol: Ulcer was induced in Wistar/ST male rats having a weight of about 200 g (6 week-old) by indomethacin as a gastric ulcer inducing agent, and the anti-ulcer effects of the test samples were examined in the following six groups to which test samples were administered.
# (§1) Each group comprises six rats.
# ______________________________________
# (§2) Group 1: (control) physiological saline
# Group 2: (comparative) cetraxate hydrochloride
# Group 3: (the present invention) garcinol
# Group 4: (the present invention) garcinol
# Group 5: (the present invention) garcinol
# Group 6: (the present invention) isogarcinol
# In this connection, physiological saline containing 1% sodium carboxymethylcellulose was used as the control, and cetraxate hydrochloride (trade name "Neuer®S", Daiichi Pharmaceuticals Co., Ltd.) which is clinically used as an anti-ulcer agent was used as the comparative sample. The cetraxate hydrochloride insoluble in water was ground into fine powder with a mortar and a pestle and used as a suspension in a 1% sodium carboxymethylcellulose solution. Also, garcinol and isogarcinol in the form of fine powder were used as the suspensions in a 1% sodium carboxymethylcellulose solution in the concentrations which are the doses in the groups. In this connection, garcinol and isogarcinol used in the section of the present invention were those obtained in Referential Examples 1 and 2, respectively.
# Experiment was carried out according to the method described by Yamahara et al. (see […] ZASSHI, 114, 401, 1994) which had been slightly modified. That is to say, indomethacin (50 mg/kg) was suspended in 1% sodium carboxymethylcellulose containing 0.1% Tween 20 (Sigma) and injected subcutaneously into the back of 24 hour fasted rats in an amount of 1 ml/rat. The samples in the six sections were orally administered at 30 minutes before administration of indomethacin. After 7 hours from the administration of indomethacin, rats were bleeded to death under anesthetization with nembutal, and stomach was isolated. A phosphate buffer (10 ml) containing 10% formalin was injected into the stomach, which was cut open after 10 minutes, and the length of lesion caused in the glandular stomach portion was defined as the lesion index, which was measured in the mm unit to evaluate the anti-ulcer effect. The suppression rate (%) in Table 1 means the value in which the difference of the length (mm) of ulcer in each group subtracted from the average length, 47.75 (mm) of ulcer in the control was divided with the average length, 47.75 (mm) of ulcer in the control. The larger the value, the stronger the anti-ulcer activity.
# gastric ulcer [9] = assay: anti-ulcer test against stress ulcer (restrained immersion into water); type: in vivo, Wistar/ST male rats; conditions: 200 mg/kg oral
# Protocol: Gastric ulcer was induced in Wistar/ST male rats having a weight of about 200 g (6 w) by the stress of restrained immersion into water and the anti-ulcer effects of the test samples were examined in the following groups to which test samples were administered.
# as §1, §2
# Group 2: (comparative) cetraxate hydrochloride 200 mg/kg
# Group 3: (the present invention) garcinol 200 mg/kg
# In this connection, the test samples in the control, comparative group and the present invention group were prepared in the same manner as in Experimental Example 9.
# Rats having fasted for 24 hours were locked up in a restrained dipping cage after 30 minutes from the oral administration of respective test samples. Next, rats were stressed by dipping the cage into water at 23° C. for 7 hours, and bleeded to death under anesthetization with nembutal, and stomach was isolated. A phosphate buffer (10 ml) containing 10% formalin was injected into the stomach, which was cut open after 10 minutes, and the length of lesion caused in the glandular stomach portion was defined as the lesion index, which was measured in the mm unit to evaluate the anti-ulcer effect.
# The method for calculating the suppression rate (%) and the meaning of it has been described in Experimental Example 9.
# bovine lens α-crystallin = assay: α-crystallin crosslinking polymerization inhibiting activity; type: biochemical; conditions: 0.1 mM, 500 mM D-fructose, pH 7.4, 37° C., 2 weeks
# Protocol: The effect of garcinol on bovine lens α-crystallin crosslinking polymerization reaction was evaluated. […] The gel after electrophoresis was stained with Coomassie Brilliant Blue, and the protein amounts in bands were determined with a densitometer. The crosslinking polymerization inhibiting activity of the protein was calculated from the following equation.
# Protein polymerization inhibiting activity (%)=(Ps-Pc)/Pc×100
# polymerization degree of protein=band density of polymerized protein/band density of monomer protein;
# Ps: polymerization degree of protein in the presence of test substance;
# Pc: polymerization degree of protein in the absence of test substance.
compound,measurement,setting,value
Oc1cc(O)c2c(c1)O[C@H](c1ccc(O)c(O)c1)[C@@H](O)C2 [(+)-catechin],antioxidant activity (ratio of the decreasing rate of absorbance with to without test substance),[1],0.18
same,ratio of the decreasing rate of absorbance (antioxidant activity with metal ion),[2],0.84
same,DPPH radical scavenging activity (equivalences to ascorbic acid = 100),[3],73
same,superoxide scavenging rate,[4],25%
same,"oxidation of bovine serum albumin, result in words",bovine serum albumin [5],promoted oxidation rather extensively
N=C(N)NN [Aminoguanidine],"Maillard reaction inhibition activity, result in words","bovine serum albumin [6]; 0.1 mM, 37° C., 5 days, pH 7.4",no activity
same,Maillard reaction inhibition activity,"bovine serum albumin [6]; 1 mM, 7200 min",no more than 43%
CC(C)(S)[C@@H](N)C(=O)O [D-penicillamine],Maillard reaction inhibition activity,bovine serum albumin [7],27%
"NC[C@H]1CC[C@H](C(=O)Oc2ccc(CCC(=O)O)cc2)CC1 [cetraxate hydrochloride, reference compound]",Length of ulcer,gastric ulcer [8],14.30 ± 10.9 mm
same,Suppression rate,gastric ulcer [8],70.1%
same,Length of ulcer,"gastric ulcer [9]; restrained water immersion 23° C., 7 hours, control 44.20 ± 18.10",18.80 ± 6.02 mm
same,Suppression rate,"gastric ulcer [9]; stress ulcer, vs. control",57.5%
CC(C)=CC[C@H]1C[C@@]23C[C@@H](CC=C(C)C)C(C)(C)[C@@](CC=C(C)C)(C(=O)C(C(=O)c4ccc(O)c(O)c4)=C2OC1(C)C)C3=O [isogarcinol],Length of ulcer,gastric ulcer [8],22.40 ± 15.3 mm
same,Suppression rate,gastric ulcer [8],53.1%
O=c1c(O)c(-c2ccc(O)c(O)c2)oc2cc(O)cc(O)c12 [quercetin],superoxide scavenging rate,[4],63%
same,"oxidation of bovine serum albumin, result in words",bovine serum albumin [5],promoted oxidation rather extensively
same,protein polymerization inhibiting activity,bovine lens α-crystallin,33%
vitamin E,antioxidant activity (ratio of the decreasing rate of absorbance with to without test substance),[1],0.10
same,ratio of the decreasing rate of absorbance (antioxidant activity with metal ion),[2],0.13
same,DPPH radical scavenging activity (equivalences to ascorbic acid = 100),[3],25
